The values that follow come from PubChem BioAssay AID330 (DTP/NCI, 2004).

The test concerns P388 leukemia ip, CD2F1 mice, survival T/C. In words: NCI In Vivo Anticancer Drug Screen. Data for tumor model P388 Leukemia (intraperitoneal) in CD2F1 (CDF1) mice. Conditions: endpoint: median survival time, higher = longer survival. In short, it runs like this: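 Mice carrying the transplanted tumor received test compound or vehicle. Survival was recorded in each group, and the value is the treated-group measurement divided by that of the vehicle-treated control group.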

Setting [1] is: dose: 60.0 mg/kg/injection, schedule: Q01DX005 (ip), vehicle: saline with Tween-80.
The mark [2] stands for this setting: dose: 100.0 mg/kg/injection, schedule: Q04DX002 (ip), vehicle: saline with Tween-80.
[3] abbreviates: dose: 60.0 mg/kg/injection, schedule: Q01DX005 (ip), vehicle: saline.
Where [4] appears, read: dose: 240.0 mg/kg/injection, schedule: Q01DX005 (ip), vehicle: saline.
Where [5] appears, read: dose: 120.0 mg/kg/injection, schedule: Q01DX005 (ip), vehicle: saline with Tween-80.
The mark [6] stands for this setting: dose: 240.0 mg/kg/injection, schedule: Q01DX005 (ip), vehicle: saline with Tween-80.

Values joined by “and” are separate entries in the source; they are usually repeats but may differ in a detail not shown here. Equal values may be shown once. Inconclusive results and toxic doses are left out.

As to `CC1=NN(c2ccccc2)C(=O)/C1=C(\[O-])c1ccccc1.CC1=NN(c2ccccc2)C(=O)/C1=C(\[O-])c1ccccc1.[Co+2]`, the T/C is 100 % of control (dose: 15.0 mg/kg/injection, schedule: Q01DX005 (ip), vehicle: saline with Tween-80); 102 % of control (dose: 30.0 mg/kg/injection, schedule: Q01DX005 (ip), vehicle: saline with Tween-80); 102 % of control and 109 % of control under setting [1].
Regarding `CN(C)CCCN1c2ccccc2Sc2ccc3ccccc3c21`, the T/C was 104 % of control (dose: 50.0 mg/kg/injection, schedule: Q01DX005 (ip), vehicle: saline with Tween-80); 102 % of control (dose: 100.0 mg/kg/injection, schedule: Q01DX005 (ip), vehicle: saline with Tween-80); 104 % of control (dose: 200.0 mg/kg/injection, schedule: Q01DX005 (ip), vehicle: saline with Tween-80).
In the case of `Cc1nc2ccccc2c(=O)n1NC(=S)Nc1ccc(Cl)cc1`, the T/C is, setting by setting: under setting [2], 90 % of control; (dose: 200.0 mg/kg/injection, schedule: Q04DX002 (ip), vehicle: saline with Tween-80) 88 % of control; (dose: 400.0 mg/kg/injection, schedule: Q04DX002 (ip), vehicle: saline with Tween-80) 90 % of control.
Consider `CC1(C)CC2=NO[Se]3=C2C(=NO3)C1`, for which the T/C was 104 % of control (dose: 1.56 mg/kg/injection, schedule: Q01DX009 (ip), vehicle: saline with Tween-80); 102 % of control (dose: 3.12 mg/kg/injection, schedule: Q01DX009 (ip), vehicle: saline with Tween-80); 104 % of control and 111 % of control (dose: 6.25 mg/kg/injection, schedule: Q01DX009 (ip), vehicle: saline with Tween-80); 117 % of control (dose: 12.5 mg/kg/injection, schedule: Q01DX009 (ip), vehicle: saline with Tween-80).
Consider `CC(=O)Nc1cc2c(cc1Br)-c1ccccc1C2O` (stereo not drawn), for which the T/C reads like this: (dose: 0.63 mg/kg/injection, schedule: Q01DX009 (ip), vehicle: saline with Tween-80) 100 % of control; (dose: 1.25 mg/kg/injection, schedule: Q01DX009 (ip), vehicle: saline with Tween-80) 109 % of control; (dose: 2.5 mg/kg/injection, schedule: Q01DX009 (ip), vehicle: saline with Tween-80) 109 % of control; (dose: 5.0 mg/kg/injection, schedule: Q04DX003 (ip), vehicle: saline with Tween-80) 90 % of control; (dose: 10.0 mg/kg/injection, schedule: Q04DX003 (ip), vehicle: saline with Tween-80) 104 % of control; (dose: 20.0 mg/kg/injection, schedule: Q01DX009 (ip), vehicle: saline with Tween-80) 90 % of control. In addition, the T/C (dose: 20.0 mg/kg/injection, schedule: Q04DX003 (ip), vehicle: saline with Tween-80) was 100 % of control.
For `N[C@H]1c2ccsc2C(=O)[C@H]1O`, the T/C was 153 % of control under setting [3] and 155 % of control under setting [4].
For the molecule `Cc1ccc(C(=O)CCN(C)C)c(C)c1`, the T/C was 106 % of control (dose: 15.0 mg/kg/injection, schedule: Q01DX005 (ip), vehicle: saline); 100 % of control (dose: 30.0 mg/kg/injection, schedule: Q01DX005 (ip), vehicle: saline); 89 % of control and 97 % of control under setting [3].
With `CC1(C)N=C(Oc2ccc(Cl)cc2Cl)NC(=S)N1`, the T/C was 95 % of control under setting [1], 97 % of control under setting [5] and 95 % of control under setting [6].
For `CSCc1ccc(Cl)cc1N` (tested in a mixture with another compound), the T/C (dose: 25.0 mg/kg/injection, schedule: Q01DX009 (ip), vehicle: saline with Tween-80) is 103 % of control; the T/C (dose: 50.0 mg/kg/injection, schedule: Q01DX009 (ip), vehicle: saline with Tween-80) was 106 % of control; the T/C (dose: 100.0 mg/kg/injection, schedule: Q01DX009 (ip), vehicle: saline with Tween-80) was 106 % of control.
As to `C(=N\N1CN(/N=C/c2ccccc2)C(c2ccccc2)C1c1ccccc1)/c1ccccc1` (stereo not drawn), the T/C (dose: 12.5 mg/kg/injection, schedule: Q01DX005 (ip), vehicle: Klucel (hydroxypropylcellulose) (HPC)) is 89 % of control; the T/C (dose: 25.0 mg/kg/injection, schedule: Q01DX005 (ip), vehicle: Klucel (hydroxypropylcellulose) (HPC)) is 99 % of control; the T/C (dose: 50.0 mg/kg/injection, schedule: Q01DX005 (ip), vehicle: Klucel (hydroxypropylcellulose) (HPC)) is 99 % of control and 97 % of control; the T/C (dose: 100.0 mg/kg/injection, schedule: Q01DX005 (ip), vehicle: Klucel (hydroxypropylcellulose) (HPC)) was 99 % of control; the T/C (dose: 200.0 mg/kg/injection, schedule: Q01DX005 (ip), vehicle: Klucel (hydroxypropylcellulose) (HPC)) is 108 % of control.
Turning to `CCO/C=C1/N=C(c2ccc(Cl)c([N+](=O)[O-])c2)OC1=O`, the T/C reads like this: under setting [1], 108 % of control; under setting [5], 106 % of control; under setting [6], 107 % of control.
Regarding `Cc1ccc(N=S(C)C)cc1`, the T/C was 100 % of control (dose: 100.0 mg/kg/injection, schedule: Q04DX002 (ip), vehicle: Klucel (hydroxypropylcellulose) (HPC)); 101 % of control (dose: 200.0 mg/kg/injection, schedule: Q04DX002 (ip), vehicle: Klucel (hydroxypropylcellulose) (HPC)); 113 % of control (dose: 400.0 mg/kg/injection, schedule: Q04DX002 (ip), vehicle: Klucel (hydroxypropylcellulose) (HPC)).
As for `O=C(CCC(=O)Nc1cc(Cl)ccc1Cl)CC(=O)c1ccc(Cl)cc1`, the T/C was 109 % of control under setting [3]; 106 % of control (dose: 120.0 mg/kg/injection, schedule: Q01DX005 (ip), vehicle: saline); 109 % of control under setting [4].
On to `COC(=O)C(Cl)(Cl)C1(c2ccccc2)OCC(C)(C)N1C(=O)C(Cl)Cl` (stereo not drawn), for which the T/C by setting is: (dose: 100.0 mg/kg/injection, schedule: Q01DX001 (ip), vehicle: saline with Tween-80) 100 % of control; (dose: 200.0 mg/kg/injection, schedule: Q01DX001 (ip), vehicle: saline with Tween-80) 100 % of control; (dose: 400.0 mg/kg/injection, schedule: Q01DX001 (ip), vehicle: saline with Tween-80) 100 % of control.
Turning to `O=[N+]([O-])c1ccc2c(NCCCCCCNc3c4ccccc4nc4cc([N+](=O)[O-])ccc34)c3ccccc3nc2c1`, the T/C (dose: 0.63 mg/kg/injection, schedule: Q01DX009 (ip), vehicle: other) was 121 % of control.
On to `CCn1cnc2c(SC3CCCC3)ncnc21`, for which the T/C is 105 % of control (dose: 100.0 mg/kg/injection, schedule: Q01DX009 (ip), vehicle: saline sonified) and 110 % of control (dose: 200.0 mg/kg/injection, schedule: Q01DX009 (ip), vehicle: saline sonified).
Take `O=C1C2C3CCC(C2C(=O)N1COP(=O)(O)O)C1C2C(=O)N(COP(=O)(O)O)C(=O)C2C31` (stereo not drawn): the T/C is, setting by setting: (dose: 40.0 mg/kg/injection, schedule: Q01DX009 (ip), vehicle: water) 103 % of control; (dose: 80.0 mg/kg/injection, schedule: Q01DX009 (ip), vehicle: water) 105 % of control; (dose: 160.0 mg/kg/injection, schedule: Q01DX009 (ip), vehicle: water) 105 % of control; (dose: 320.0 mg/kg/injection, schedule: Q01DX009 (ip), vehicle: water) 124 % of control.
With `O=C(O)c1c(Cl)n(-c2ccccc2)c2c(C(=O)O)cccc12`, the T/C by setting is: (dose: 100.0 mg/kg/injection, schedule: Q01DX001 (ip), vehicle: Klucel (hydroxypropylcellulose) (HPC)) 97 % of control; (dose: 200.0 mg/kg/injection, schedule: Q01DX001 (ip), vehicle: Klucel (hydroxypropylcellulose) (HPC)) 97 % of control; (dose: 400.0 mg/kg/injection, schedule: Q01DX001 (ip), vehicle: Klucel (hydroxypropylcellulose) (HPC)) 97 % of control.
As for `Cc1ccc(S(=O)(=O)N/N=C/C=N/NS(=O)(=O)c2ccc(C)cc2)cc1`, the T/C was 106 % of control (dose: 12.5 mg/kg/injection, schedule: Q01DX009 (ip), vehicle: other); 107 % of control (dose: 25.0 mg/kg/injection, schedule: Q01DX009 (ip), vehicle: other); 105 % of control (dose: 50.0 mg/kg/injection, schedule: Q01DX009 (ip), vehicle: other); 96 % of control (dose: 100.0 mg/kg/injection, schedule: Q01DX009 (ip), vehicle: other); 97 % of control (dose: 200.0 mg/kg/injection, schedule: Q01DX009 (ip), vehicle: other).
With `CC(=NC(C)C)Nc1ccc(Cl)cc1C`, the T/C reads like this: (dose: 50.0 mg/kg/injection, schedule: Q01DX009 (ip), vehicle: saline + Tween-80 + alcohol) 101 % of control; (dose: 100.0 mg/kg/injection, schedule: Q01DX009 (ip), vehicle: saline + Tween-80 + alcohol) 95 % of control.
`CCOC(=O)c1c(C)[nH]c(=O)c(C#N)c1NC1CCCCC1`: the T/C was 98 % of control (dose: 25.0 mg/kg/injection, schedule: Q04DX002 (ip), vehicle: saline with Tween-80); 100 % of control (dose: 50.0 mg/kg/injection, schedule: Q04DX002 (ip), vehicle: saline with Tween-80); 92 % of control under setting [2].
